Results from EP0523085B1, “PEROXY ACID BLEACH PRECURSORS AND DETERGENT COMPOSITIONS CONTAINING THEM” (priority 1990, dated 1991).
Where two headings read alike, the source gives them in different places.

Columns and labels:
[1] = water solubility at 10°C (saturated solution in distilled water); type: physicochemical
Experimental: For the purposes of the present invention the solubility of a precursor in water is defined as the weight of the compound that can be dissolved in 100ml distilled water at 10°C, expressed on a percentage basis. Precursors in accordance with the invention have water solubilities of at least 25% by weight, more preferably at least 50% and most preferably at least 75%.
The water solubility of this material was determined by cooling 2.3g distilled water to 10°C and adding the precursor until no further material would dissolve. A slight excess was then added and the temperature raised to 25°C to give complete solution before recooling to 10°C, ensuring that crystallisation of the precursor took place from a saturated solution.

[2] = perhydrolysis with sodium perborate tetrahydrate at 10°C, iodometric titration; settings: for rates of perhydrolysis, comparison of the two precursors: each predissolved (KDAES in distilled water, TAED in dimethyl formamide); for time for dissolution and perhydrolysis to be substantially complete: precursor added in solid form, KDAES assumed to be 82% active
Experimental: A jacketed 1 litre glass vessel fitted with a magnetic stirrer was used to carry out the perhydrolysis and the temperature of the solution was controlled at 10°C by means of a Thermomix (RTM) cooling unit which was used to circulate the cooled water through a jacket around the perhydrolysis vessel
The value obtained for the blank was subtracted from the values obtained at the various time intervals to give the figure from which the percentage perhydrolysis was calculated.

| solubility [1] [%] | Molecule | precursor perhydrolysed within 5 minutes ([2]; solid product, on the basis of a purity of 97.6%) | solubility ([1]; distilled water, 10°C) [%] | amount of the precursor dissolved ([1]; in 2.3g distilled water at 10°C) [g] | rates of perhydrolysis, comparison of the two precursors [2] | time for dissolution and perhydrolysis to be substantially complete [2] |
| --- | --- | --- | --- | --- | --- | --- |
| 75.6 | CC(=O)N(CCC[N+](C)(C)C)C(C)=O.[Br-] [DTAPB, N,N-diacetyl trimethylammonio propylamine bromide] | approx. 92% | – | – | – | – |
| – | CC(=O)N(CCS(=O)(=O)[O-])C(C)=O.[K+] [KDAES, potassium N,N-diacetylaminoethane sulphonate] | – | 66.6 | 4.71 | broadly similar | ≤ 5 min |
| – | tetra acetyl ethylene diamine [TAED, reference compound] | – | – | – | broadly similar | at least 30 minutes |
